Reference: patent US20250145628A1, “PYRAZOLOPYRIMIDINES, COMPOSITIONS COMPRISING THEM AND USES THEREOF” (Novo Nordisk A/S, priority 2022, published 2025)

Legend:
human CB1 receptor [1] = target: T1, human CB1 receptor (Homo sapiens, UniProt P21554); assay: bioSensAll β-arrestin plasma membrane translocation BRET biosensor (+GRK2) assay (antagonism of CP-55,940); assay type: cell-based; details: HEK293 cells transfected with hCB1 and β-arrestin PM translocation biosensor (+GRK2), EC75 of CP-55,940 (100 nM), overnight incubation, read-out: CB1 wt βarr2 IC50
T1 construct: expressed in transfected cells; host or cells: HEK293
How it was run: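 HEK293 cells co-transfected with hCB1 and β-arrestin plasma-membrane translocation BRET biosensor plus GRK2, tested ~48 h later in HBSS. Compounds (12 doses, 0–600 nM) added 3–5 min before CP-55,940 at EC75 of 100 nM. uBRET ratio (515/400 nm) fitted by four-parameter logistic regression.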

human CB1 receptor [2] = target: T1, human CB1 receptor; assay: bioSensAll GAPL-Gi2 BRET biosensor assay (antagonism of CP-55,940); assay type: cell-based; details: HEK293 cells transfected with hCB1 and GAPL-Gi2 biosensor, EC75 of CP-55,940 (0.1 nM), overnight incubation, read-out: CB1 wt Gi2 IC50
How it was run: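 HEK293 cells transiently co-transfected with hCB1 and GAPL-Gi2 BRET biosensor; ~48 h later, in HBSS, 12 compound doses ([…]) added 3–5 min before CP-55,940 at EC75 (0.1 nM). BRET ratio 515/400 nm with coelenterazine, standardized to uBRET; four-parameter logistic fit.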

T1 sequence (P21554 whole entry): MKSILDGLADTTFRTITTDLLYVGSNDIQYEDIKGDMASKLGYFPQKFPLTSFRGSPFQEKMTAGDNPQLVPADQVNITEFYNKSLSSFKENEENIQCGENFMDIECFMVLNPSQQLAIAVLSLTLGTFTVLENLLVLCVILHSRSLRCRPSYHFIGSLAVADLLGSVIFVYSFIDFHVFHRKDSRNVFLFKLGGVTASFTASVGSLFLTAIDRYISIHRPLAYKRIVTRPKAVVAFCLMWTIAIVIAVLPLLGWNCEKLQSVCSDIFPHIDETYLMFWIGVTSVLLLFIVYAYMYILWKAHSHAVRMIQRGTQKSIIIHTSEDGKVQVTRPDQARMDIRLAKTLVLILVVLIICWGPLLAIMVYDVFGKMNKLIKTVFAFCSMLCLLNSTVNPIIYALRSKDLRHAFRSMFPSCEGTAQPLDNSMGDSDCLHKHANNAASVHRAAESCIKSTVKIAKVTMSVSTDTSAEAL

IC50 (human CB1 receptor [1]) [nM] | IC50 (human CB1 receptor [2]) [nM] | SMILES
1.24 | 1.07 | CC(C)(O)COc1cc(N2CCN(S(=O)(=O)C(F)(F)F)CC2)n2nc(-c3ccc(C#N)nc3)c(-c3ccc(Cl)cc3)c2n1 [Compound 53, 5-[3-(4-chlorophenyl)-5-(2-hydroxy-2-methyl-propoxy)-7-[4-(trifluoromethylsulfonyl)piperazin-1-yl]pyrazolo[1,5-a]pyrimidin-2-yl]pyridine-2-carbonitrile]
2.43 | 1.02 | CC(C)(O)COc1cc(N2CCC(C)(C(N)=O)CC2)n2nc(-c3ccc(C#N)nc3)c(-c3ccc(Cl)cc3)c2n1 [Compound 54, 1-[3-(4-chlorophenyl)-2-(6-cyano-3-pyridyl)-5-(2-hydroxy-2-methyl-propoxy)pyrazolo[1,5-a]pyrimidin-7-yl]-4-methyl-piperidine-4-carboxamide]
3.22 | 1.25 | CCOC1(C(N)=O)CCN(c2cc(OCC(C)(C)O)nc3c(-c4ccc(Cl)cc4)c(-c4ccc(C#N)nc4)nn23)CC1 [Compound 55, 1-[3-(4-chlorophenyl)-2-(6-cyano-3-pyridyl)-5-(2-hydroxy-2-methyl-propoxy)pyrazolo[1,5-a]pyrimidin-7-yl]-4-ethoxy-piperidine-4-carboxamide]
5.8 | 2.69 | Cc1ccc(-c2cc(N3CCC[C@H]3CO)nc3c(-c4ccc(Cl)cc4)c(-c4ccccc4Cl)nn23)cn1 [Compound 56, [(2S)-1-[2-(2-chlorophenyl)-3-(4-chlorophenyl)-7-(6-methyl-3-pyridyl)pyrazolo[1,5-a]pyrimidin-5-yl]pyrrolidin-2-yl]methanol]
2.86 | 1.04 | CC(C)OC1(C(N)=O)CCN(c2cc(OCC(C)(C)O)nc3c(-c4ccc(Cl)cc4)c(-c4ccccc4Cl)nn23)CC1 [Compound 57, 1-[2-(2-chlorophenyl)-3-(4-chlorophenyl)-5-(2-hydroxy-2-methyl-propoxy)pyrazolo[1,5-a]pyrimidin-7-yl]-4-isopropoxy-piperidine-4-carboxamide]
2.2 | 0.99 | CC(C)OC1(C(N)=O)CCN(c2cc(N3CCC[C@H]3CO)nc3c(-c4ccc(Cl)cc4)c(-c4ccccc4Cl)nn23)CC1 [Compound 58, 1-[2-(2-chlorophenyl)-3-(4-chlorophenyl)-5-[(2S)-2-(hydroxymethyl)pyrrolidin-1-yl]pyrazolo[1,5-a]pyrimidin-7-yl]-4-isopropoxy-piperidine-4-carboxamide]
21.8 | 6.21 | CC(C)(O)COc1cc(N2CC(C(N)=O)C2)n2nc(-c3ccc(C#N)nc3)c(-c3ccc(Cl)cc3)c2n1 [Compound 59, 1-[3-(4-chlorophenyl)-2-(6-cyano-3-pyridyl)-5-(2-hydroxy-2-methyl-propoxy)pyrazolo [1,5-a]pyrimidin-7-yl]azetidine-3-carboxamide]
5.02 | 1.52 | CC(C)(O)COc1cc(N2CC(C)(C(N)=O)C2)n2nc(-c3ccc(C#N)nc3)c(-c3ccc(Cl)cc3)c2n1 [Compound 60, 1-[3-(4-chlorophenyl)-2-(6-cyano-3-pyridyl)-5-(2-hydroxy-2-methyl-propoxy)pyrazolo[1,5-a]pyrimidin-7-yl]-3-methyl-azetidine-3-carboxamide]
3.65 | 1.39 | N#Cc1ccc(-c2nn3c(N4CC(C(N)=O)C4)cc(N4CCC[C@H]4CO)nc3c2-c2ccc(Cl)cc2)cn1 [Compound 61, 1-[3-(4-chlorophenyl)-2-(6-cyano-3-pyridyl)-5-[(2S)-2-(hydroxymethyl)pyrrolidin-1-yl]pyrazolo[1,5-a]pyrimidin-7-yl]azetidine-3-carboxamide]
> 30000 | 7610 | CN(CC1COC(C)(C)OC1)c1cc(N2CCC(C)(C(N)=O)CC2)n2nc(-c3ccccc3Cl)c(-c3ccc(Cl)cc3)c2n1 [Compound 62, 1-[2-(2-chlorophenyl)-3-(4-chlorophenyl)-5-[(2,2-dimethyl-1,3-dioxan-5-yl)methyl-methyl-amino]pyrazolo[1,5-a]pyrimidin-7-yl]-4-methyl-piperidine-4-carboxamide]
1.62 | 0.9 | CC(C)OC1(C(N)=O)CCN(c2cc(OCC(C)(C)O)nc3c(-c4ccc(Cl)cc4)c(-c4ccc(C#N)nc4)nn23)CC1 [Compound 63]
2.95 | 1.25 | CN(CC(C)(C)O)c1cc(-c2ccc(C(F)(F)F)nc2)n2nc(-c3ccc(C(N)=O)nc3)c(-c3ccc(Cl)cc3)c2n1 [Compound 64, 5-[3-(4-chlorophenyl)-5-[(2-hydroxy-2-methyl-propyl)-methyl-amino]-7-[6-(trifluoromethyl)-3-pyridyl]pyrazolo[1,5-a]pyrimidin-2-yl]pyridine-2-carboxamide]
20.6 | 13.3 | CNC(=O)[C@H]1CCN1c1cc(N2CCC(C)(C(N)=O)CC2)n2nc(-c3ccccc3Cl)c(-c3ccc(Cl)cc3)c2n1 [Compound 65, 1-[2-(2-chlorophenyl)-3-(4-chlorophenyl)-5-[(2R)-2-(methylcarbamoyl)azetidin-1-yl]pyrazolo[1,5-a]pyrimidin-7-yl]-4-methyl-piperidine-4-carboxamide]
47.3 | 7.3 | CN(CCOCCO)c1cc(N2CCC(C)(C(N)=O)CC2)n2nc(-c3ccccc3Cl)c(-c3ccc(Cl)cc3)c2n1 [Compound 66, 1-[2-(2-chlorophenyl)-3-(4-chlorophenyl)-5-[2-(2-hydroxyethoxy)ethyl-methyl-amino]pyrazolo[1,5-a]pyrimidin-7-yl]-4-methyl-piperidine-4-carboxamide]
14.5 | 1.96 | CN(C[C@H](O)CO)c1cc(N2CCC(C)(C(N)=O)CC2)n2nc(-c3ccccc3Cl)c(-c3ccc(Cl)cc3)c2n1 [Compound 67, 1-[2-(2-chlorophenyl)-3-(4-chlorophenyl)-5-[[(2S)-2,3-dihydroxypropyl]-methyl-amino]pyrazolo[1,5-a]pyrimidin-7-yl]-4-methyl-piperidine-4-carboxamide]
14.5 | 3.01 | C[C@@H](C(N)=O)N(C)c1cc(N2CCC(C)(C(N)=O)CC2)n2nc(-c3ccccc3Cl)c(-c3ccc(Cl)cc3)c2n1 [Compound 68, 1-[5-[[(1S)-2-amino-1-methyl-2-oxo-ethyl]-methyl-amino]-2-(2-chlorophenyl)-3-(4-chlorophenyl)pyrazolo[1,5-a]pyrimidin-7-yl]-4-methyl-piperidine-4-carboxamide]
> 30000 | 3910 | CCNC(=O)CN(C)c1cc(N2CC(OCC(N)=O)C2)n2nc(-c3ccccc3Cl)c(-c3ccc(Cl)cc3)c2n1 [Compound 69, 2-[[7-[3-(2-amino-2-oxo-ethoxy)azetidin-1-yl]-2-(2-chlorophenyl)-3-(4-chlorophenyl)pyrazolo[1,5-a]pyrimidin-5-yl]-methyl-amino]-N-ethyl-acetamide]
2.78 | 1.11 | C[C@@H](O)COc1cc(-c2ccc(C(F)(F)F)nc2)n2nc(-c3ccccc3Cl)c(-c3ccc(Cl)cc3)c2n1 [Compound 70(R)]
8.27 | 1.71 | C[C@H](O)COc1cc(-c2ccc(C(F)(F)F)nc2)n2nc(-c3ccccc3Cl)c(-c3ccc(Cl)cc3)c2n1 [Compound 70(S)]
12.3 | 3.08 | C[C@H](CO)Oc1cc(-c2ccc(C(F)(F)F)nc2)n2nc(-c3ccccc3Cl)c(-c3ccc(Cl)cc3)c2n1 [Compound 71(R)]
4.07 | 1.37 | C[C@@H](CO)Oc1cc(-c2ccc(C(F)(F)F)nc2)n2nc(-c3ccccc3Cl)c(-c3ccc(Cl)cc3)c2n1 [Compound 71(S)]
3.33 | 1.33 | O[C@@H]1CCN(c2cc(-c3ccc(C(F)(F)F)nc3)n3nc(-c4ccccc4Cl)c(-c4ccc(Cl)cc4)c3n2)C1 [Compound 72(R)]
5.25 | 1.64 | O[C@H]1CCN(c2cc(-c3ccc(C(F)(F)F)nc3)n3nc(-c4ccccc4Cl)c(-c4ccc(Cl)cc4)c3n2)C1 [Compound 72(S)]
